Reference: paper PMC8566089 (Bioorganic Chemistry, 2021)

What was measured:
EGFR [1] = molecular target: T1, EGFR (Homo sapiens, UniProt P00533); test: EGFR Western blot in MCF7; assay type: cell-based; conditions: for EGFR MCF7 % Inhibition: Western blot at MTT-IC50; for EGFR MCF7 RQ (relative quantification): Western blot at MTT-IC50, control RQ 4.226
[2] = test system: A431 (squamous skin) cancer cell line; test: MTT antiproliferative assay, A431; assay type: cell-based; conditions: for IC50: Homo sapiens, A-431, 72 h, read-out: IC50 ± SE, A431; for SI (selectivity index), A431: IC50 of RPE1 relative to that of A431
VEGFR-2 [3] = molecular target: T2, VEGFR-2 (Homo sapiens, UniProt P35968); test: VEGFR-2 Western blot in HCT116; assay type: cell-based; conditions: for VEGFR2 HCT116 % Inhibition: Western blot at MTT-IC50; for VEGFR2 HCT116 RQ (relative quantification): Western blot at MTT-IC50, control RQ 3.817
COX-2 = molecular target: T3, COX-2 (Homo sapiens, UniProt P35354); test: COX-2 inhibitor screening kit; assay type: biochemical
T3 sequence (P35354 18-604): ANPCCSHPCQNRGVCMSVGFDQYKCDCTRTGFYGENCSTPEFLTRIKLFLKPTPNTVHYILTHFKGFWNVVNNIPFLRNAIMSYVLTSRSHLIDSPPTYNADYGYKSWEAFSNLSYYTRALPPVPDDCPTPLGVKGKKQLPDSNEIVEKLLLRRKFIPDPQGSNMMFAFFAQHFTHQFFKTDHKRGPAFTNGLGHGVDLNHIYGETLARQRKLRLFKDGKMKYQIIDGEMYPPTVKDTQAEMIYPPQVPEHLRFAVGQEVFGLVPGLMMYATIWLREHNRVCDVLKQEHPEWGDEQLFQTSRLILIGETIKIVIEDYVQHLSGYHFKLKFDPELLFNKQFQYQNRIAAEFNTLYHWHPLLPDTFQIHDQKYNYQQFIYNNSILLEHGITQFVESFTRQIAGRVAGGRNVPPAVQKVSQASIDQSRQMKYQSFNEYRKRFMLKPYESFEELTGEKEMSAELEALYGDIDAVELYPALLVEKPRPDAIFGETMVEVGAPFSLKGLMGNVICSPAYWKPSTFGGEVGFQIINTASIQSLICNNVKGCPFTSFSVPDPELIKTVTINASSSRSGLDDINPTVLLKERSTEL

EGFR [4] = molecular target: T1, EGFR; test: EGFR Western blot in HCT116; assay type: cell-based; conditions: for EGFR HCT116 % Inhibition: Western blot at MTT-IC50; for EGFR HCT116 RQ (relative quantification): Western blot at MTT-IC50, control RQ 4.0382
COX-1 = molecular target: T4, COX-1 (Ovis aries, UniProt P05979); test: COX-1 inhibitor screening kit; assay type: biochemical
T4 sequence (P05979 25-600): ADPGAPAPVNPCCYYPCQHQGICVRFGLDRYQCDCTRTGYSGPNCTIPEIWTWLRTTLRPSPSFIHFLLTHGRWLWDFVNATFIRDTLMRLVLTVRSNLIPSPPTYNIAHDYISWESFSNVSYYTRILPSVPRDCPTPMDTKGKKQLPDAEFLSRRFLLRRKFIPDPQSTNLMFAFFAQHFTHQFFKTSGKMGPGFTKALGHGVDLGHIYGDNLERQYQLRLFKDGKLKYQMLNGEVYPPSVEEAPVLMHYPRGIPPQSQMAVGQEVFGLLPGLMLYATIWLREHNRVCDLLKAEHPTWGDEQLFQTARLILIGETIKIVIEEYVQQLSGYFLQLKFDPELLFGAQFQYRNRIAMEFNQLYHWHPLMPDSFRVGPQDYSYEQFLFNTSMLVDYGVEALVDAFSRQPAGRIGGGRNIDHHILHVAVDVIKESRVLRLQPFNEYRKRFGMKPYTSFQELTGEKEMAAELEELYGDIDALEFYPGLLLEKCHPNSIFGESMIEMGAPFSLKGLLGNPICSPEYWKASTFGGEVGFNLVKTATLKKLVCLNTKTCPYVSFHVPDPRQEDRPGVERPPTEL

[5] = test system: MCF7 (breast) cancer cell line; test: MTT antiproliferative assay, MCF7; assay type: cell-based; conditions: for IC50: Homo sapiens, MCF7, 72 h, read-out: IC50 ± SE, MCF7; for SI (selectivity index), MCF7: IC50 of RPE1 relative to that of MCF7
[6] = test system: HCT116 (colon) cancer cell line; test: MTT antiproliferative assay, HCT116; assay type: cell-based; conditions: for IC50: Homo sapiens, HCT-116, 72 h, read-out: IC50 ± SE, HCT116; for SI (selectivity index), HCT116: IC50 of RPE1 relative to that of HCT116
[7] = test system: SARS-CoV-2 (hCoV-19/Egypt/NRC-03/2020); conditions: SARS-CoV-2 / VERO-E6
VEGFR-2 [8] = molecular target: T2, VEGFR-2; test: VEGFR-2 Western blot in MCF7; assay type: cell-based; conditions: for VEGFR2 MCF7 % Inhibition: Western blot at MTT-IC50; for VEGFR2 MCF7 RQ (relative quantification): Western blot at MTT-IC50, control RQ 3.725
[9] = test system: RPE1 (normal human immortalized retinal pigment epithelial cell line); test: MTT assay against normal RPE1 cells; assay type: cell-based; conditions: RPE-1, read-out: IC50 ± SE, RPE1

T2 sequence (P35968 20-1356): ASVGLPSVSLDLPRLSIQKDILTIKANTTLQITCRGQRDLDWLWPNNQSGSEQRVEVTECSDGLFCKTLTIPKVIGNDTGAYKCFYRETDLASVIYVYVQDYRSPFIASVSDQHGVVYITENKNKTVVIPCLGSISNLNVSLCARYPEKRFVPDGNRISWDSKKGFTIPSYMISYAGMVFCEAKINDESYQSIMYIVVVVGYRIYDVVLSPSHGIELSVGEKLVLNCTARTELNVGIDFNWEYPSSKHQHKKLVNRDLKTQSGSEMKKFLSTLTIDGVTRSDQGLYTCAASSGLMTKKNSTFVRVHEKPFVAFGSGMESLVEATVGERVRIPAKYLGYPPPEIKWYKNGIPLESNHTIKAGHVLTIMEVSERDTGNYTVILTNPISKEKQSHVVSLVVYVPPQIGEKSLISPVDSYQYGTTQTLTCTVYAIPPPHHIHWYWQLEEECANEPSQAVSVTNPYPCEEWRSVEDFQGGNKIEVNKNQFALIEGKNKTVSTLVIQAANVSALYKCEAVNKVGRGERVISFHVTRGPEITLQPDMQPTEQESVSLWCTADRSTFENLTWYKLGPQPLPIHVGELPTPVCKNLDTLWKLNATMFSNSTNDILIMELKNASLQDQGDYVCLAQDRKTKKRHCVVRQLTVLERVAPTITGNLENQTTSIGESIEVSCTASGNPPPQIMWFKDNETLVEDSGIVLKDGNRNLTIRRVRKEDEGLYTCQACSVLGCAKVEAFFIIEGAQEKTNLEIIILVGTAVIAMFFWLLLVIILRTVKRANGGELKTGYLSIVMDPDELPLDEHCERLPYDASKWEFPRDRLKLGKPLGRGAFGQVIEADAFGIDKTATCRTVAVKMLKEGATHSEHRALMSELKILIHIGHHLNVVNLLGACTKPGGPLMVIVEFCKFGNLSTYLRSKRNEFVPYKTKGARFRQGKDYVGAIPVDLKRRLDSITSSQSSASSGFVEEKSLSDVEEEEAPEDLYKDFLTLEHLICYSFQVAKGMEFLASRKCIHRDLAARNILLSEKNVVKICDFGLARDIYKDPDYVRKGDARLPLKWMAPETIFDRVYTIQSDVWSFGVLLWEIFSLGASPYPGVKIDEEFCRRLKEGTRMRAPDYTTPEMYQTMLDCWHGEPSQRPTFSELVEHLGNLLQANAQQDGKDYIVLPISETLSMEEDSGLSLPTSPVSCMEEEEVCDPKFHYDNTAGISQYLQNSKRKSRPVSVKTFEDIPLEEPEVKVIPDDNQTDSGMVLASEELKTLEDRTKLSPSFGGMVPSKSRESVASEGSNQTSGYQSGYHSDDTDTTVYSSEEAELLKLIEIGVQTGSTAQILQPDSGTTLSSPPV
T1 sequence (P00533 25-1210): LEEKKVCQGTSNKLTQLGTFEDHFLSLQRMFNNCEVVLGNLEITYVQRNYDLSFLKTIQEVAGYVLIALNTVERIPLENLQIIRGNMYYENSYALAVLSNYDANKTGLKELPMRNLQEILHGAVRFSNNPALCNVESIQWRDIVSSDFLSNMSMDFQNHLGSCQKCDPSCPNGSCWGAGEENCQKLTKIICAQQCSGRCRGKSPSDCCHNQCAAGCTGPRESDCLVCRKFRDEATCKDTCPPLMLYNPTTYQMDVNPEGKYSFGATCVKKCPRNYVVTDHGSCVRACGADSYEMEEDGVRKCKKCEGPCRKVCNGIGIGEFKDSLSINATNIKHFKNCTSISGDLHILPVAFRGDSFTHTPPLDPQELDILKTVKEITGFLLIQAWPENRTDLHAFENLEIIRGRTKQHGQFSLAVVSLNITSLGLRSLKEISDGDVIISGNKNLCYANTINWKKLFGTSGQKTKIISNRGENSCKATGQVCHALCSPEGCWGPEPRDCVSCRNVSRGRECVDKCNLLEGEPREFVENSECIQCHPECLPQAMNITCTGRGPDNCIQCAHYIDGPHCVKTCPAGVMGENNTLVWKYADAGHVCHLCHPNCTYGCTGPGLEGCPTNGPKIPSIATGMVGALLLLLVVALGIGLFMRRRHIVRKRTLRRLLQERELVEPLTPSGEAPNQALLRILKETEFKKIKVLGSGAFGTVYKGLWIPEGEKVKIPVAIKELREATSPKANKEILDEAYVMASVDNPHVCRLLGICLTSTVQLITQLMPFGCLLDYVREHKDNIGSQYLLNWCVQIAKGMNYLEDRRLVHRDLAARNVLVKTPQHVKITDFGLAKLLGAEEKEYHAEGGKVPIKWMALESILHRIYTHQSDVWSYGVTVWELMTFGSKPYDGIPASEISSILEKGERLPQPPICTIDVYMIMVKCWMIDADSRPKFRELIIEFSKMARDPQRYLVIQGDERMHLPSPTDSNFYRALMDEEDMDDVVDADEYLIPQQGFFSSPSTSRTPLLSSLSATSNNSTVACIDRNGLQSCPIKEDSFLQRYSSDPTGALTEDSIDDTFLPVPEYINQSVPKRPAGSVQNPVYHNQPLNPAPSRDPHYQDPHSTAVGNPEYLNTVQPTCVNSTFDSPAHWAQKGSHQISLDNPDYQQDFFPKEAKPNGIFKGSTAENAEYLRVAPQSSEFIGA

| Compound | EGFR MCF7 % Inhibition (EGFR [1]) [%] | EGFR MCF7 RQ (relative quantification) (EGFR [1]) | IC50 [2] [nM] | SI (selectivity index), A431 [2] | VEGFR2 HCT116 % Inhibition (VEGFR-2 [3]) [%] | VEGFR2 HCT116 RQ (relative quantification) (VEGFR-2 [3]) | IC50 (COX-2) [nM] | SI = IC50(COX-1)/IC50(COX-2) (COX-2) | EGFR HCT116 % Inhibition (EGFR [4]) [%] | EGFR HCT116 RQ (relative quantification) (EGFR [4]) | IC50 (COX-1) [nM] | IC50 [5] [nM] | SI (selectivity index), MCF7 [5] | IC50 [6] [nM] | SI (selectivity index), HCT116 [6] | SI = CC50/IC50 [7] | VEGFR2 MCF7 % Inhibition (VEGFR-2 [8]) [%] | VEGFR2 MCF7 RQ (relative quantification) (VEGFR-2 [8]) | IC50 [9] [nM] |
| --- | --- | --- | --- | --- | --- | --- | --- | --- | --- | --- | --- | --- | --- | --- | --- | --- | --- | --- | --- |
| CC(=O)Oc1ccc(Cl)cc1C(=O)N1C/C(=C\c2cccs2)C(=O)/C(=C/c2cccs2)C1 [Compound 5p, 4-Chloro-2-[(3E,5E)-4-oxo-3,5-bis(thiophen-2-ylmethylene)piperidine-1-carbonyl]phenyl acetate] | 59.0 | 1.731 | 6250 ± 490 | 3.2 | 39.6 | 2.304 | 138 | 2.065 | 56.3 | 1.763 | 285 | 6250 ± 610 | 3.18 | 6380 ± 440 | 3.12 | 233.6 | 40.7 | 2.209 | 19900 ± 1210 |
| COc1ccc(/C=C2\CN(C(=O)c3cc(Cl)ccc3OC(C)=O)C/C(=C\c3ccc(OC)c(OC)c3)C2=O)cc1OC [Compound 5n, 2-[3,5-Bis((E)-3,4-dimethoxybenzylidene)-4-oxopiperidine-1-carbonyl]-4-chlorophenyl acetate] | 56.8 | 1.825 | 444 ± 40 | 17.7 | 37.4 | 2.389 | 361 | 0.452 | 60.1 | 1.610 | 163 | 4390 ± 400 | 1.79 | 1490 ± 170 | 5.30 | 88.9 | 37.2 | 2.338 | 7870 ± 620 |
| CC(=O)Oc1ccccc1C(=O)N1C/C(=C\c2cccs2)C(=O)/C(=C/c2cccs2)C1 [Compound 5i, 2-[(3E,5E)-4-Oxo-3,5-bis(thiophen-2-ylmethylene)piperidine-1-carbonyl]phenyl acetate] | 63.6 | 1.540 | 2150 ± 150 | 8.8 | 39.8 | 2.297 | 772 | 0.589 | 61.3 | 1.564 | 455 | 5580 ± 520 | 3.41 | 9260 ± 610 | 2.06 | 125.6 | 46.3 | 2.000 | 19000 ± 990 |
| CC(=O)Oc1ccccc1C(=O)N1C/C(=C\c2ccc(F)cc2)C(=O)/C(=C/c2ccc(F)cc2)C1 [Compound 5b, 2-[3,5-Bis((E)-4-fluorobenzylidene)-4-oxopiperidine-1-carbonyl]phenyl acetate] | 83.7 | 0.69 | 2120 ± 190 | 3.9 | 70.9 | 1.11 | 442 | 0.330 | 72.8 | 1.1 | 146 | 5760 ± 470 | 1.44 | 5100 ± 510 | 1.63 | 22.7 | 57.0 | 1.6 | 8300 ± 710 |
| CC(=O)Oc1ccc(Cl)cc1C(=O)N1C/C(=C\c2ccccc2)C(=O)/C(=C/c2ccccc2)C1 [Compound 5j, 4-Chloro-2-[3,5-di((E)-benzylidene)-4-oxopiperidine-1-carbonyl]phenyl acetate] | 65.7 | 1.45 | 2510 ± 180 | 3.7 | 79.0 | 0.8 | 1190 | 0.120 | 68.5 | 1.273 | 142 | 4500 ± 390 | 2.06 | 2620 ± 190 | 3.53 | 5.7 | 49.0 | 1.9 | 9260 ± 750 |
| CC(=O)Oc1ccc(Cl)cc1C(=O)N1C/C(=C\c2ccc(Cl)cc2)C(=O)/C(=C/c2ccc(Cl)cc2)C1 [Compound 5k, 2-[3,5-Bis((E)-4-chlorobenzylidene)-4-oxopiperidine-1-carbonyl]-4-chlorophenyl acetate] | 69.0 | 1.31 | 417 ± 30 | 18.6 | 68.6 | 1.2 | 676 | 0.578 | 63.4 | 1.479 | 391 | 4070 ± 330 | 1.91 | 1970 ± 170 | 3.94 | 10.3 | 59.7 | 1.5 | 7770 ± 560 |
